According to US20240335447A1, “WEE1 INHIBITOR FOR CANCER” (Recurium IP Holdings, LLC, priority 2021, published 2024):

What was measured:
[1] = test system: SW1463 cells; assay: SW1463 subcutaneous xenograft, tumor growth; assay type: in vivo, Mice; conditions: Compound (A) 80 mg/kg p.o. qd x21, sotorasib 30 mg/kg p.o.
Protocol: Mice were inoculated with SW1463 cells subcutaneously on the right flank with the single cell suspension of 95% viable tumor cells (1×10^7) in 100 μL L-15 Matrigel mixture (1:1 ratio) without serum for the tumor development. The treatment was started when the mean tumor size reached approximately 200 mm^3 (with individual tumor range between 180-220 mm^3). Animals were randomly distributed into treatment groups of 8 animals each and dosed with vehicle (top line indicated with circles) and indicated compounds at indicated dosage and frequency shown in FIG. 11 and Table 10. In FIG. 11, single agent activity was shown with Compound (A) and sotorasib at the indicated doses, and the bottom line is Compound (A) 80 mg/kg p.o. qd×21+sotorasib 30 mg/kg p.o. pd×21.
Tumor volumes were evaluated twice per week to calculate tumor volume over time, and mice were weighed twice per week as a surrogate for signs of toxicity. Tumor growth inhibition (TGI) was calculated using the following equation TGI=(1−(Td−T0)/(Cd−C0))×100%. Td and Cd are the mean tumor volumes of the treated and control animals, and T0 and C0 are the mean tumor volumes of the treated and control animals at the start of the experiment. The tumor regression was defined as (1−(Td/T0))×100% tumor volume (TV) decrease (Td terminal TV divided by T0 initial TV). […]

[2] = test system: SW1116 tumor cells; assay: colorectal cancer SW1116 xenograft model (TP53 mutant; KRAS mutant); assay type: in vivo
Protocol: (§1) The antitumor activity of Compound (A) was assessed using the colorectal cancer SW1116 xenograft model (TP53 mutant; KRAS mutant) with NOD/SCID nude mice. Each mouse was inoculated on the right flank subcutaneously with 1×10^7 (+High Concentration Matrigel)/200 μL SW1116 tumor cells for the tumor development. When the mean tumor size reached 229 mm^3, animals were randomized into 4 groups (10 animals/group), and the treatments were initiated according to Table 6.
(§2) Study endpoints included daily body weight, clinical observations and tumor volume.

[3] = test system: SW837 cells; assay: CellTiter-Glo (CTG) cell viability assay, SW837 cells; assay type: cell-based; conditions: Homo sapiens, 72 h, sotorasib 12 nM, Compound (A) 1000 nM, single agent or combination of both
Protocol: (§3) 20,000 H23 cells were incubated in a 96 well plate as a triplicate with 40 nM of sotorasib or 120 nM of Compound (A) as a single agent or the combination of both for 72 h (FIG. 2). 20,000 MiaPaca-2 cells were incubated in a 96 well plate as a triplicate with 350 nM of sotorasib or 1000 nM of Compound (A) as a single agent or the combination of both for 72 h (FIG. 3). 20,000 H358 cells were incubated in a 96 well plate as a triplicate with 10 nM of sotorasib or 300 nM of Compound (A) as a single agent or the combination of both for 72 h (FIG. 4). 20,000 SW837 cells were incubated in a 96 well plate as a triplicate with 12 nM of sotorasib or 1000 nM of Compound (A) as a single agent or the combination of both for 72 h (FIG. 5). For each cell line, the cell viability was assessed using a CellTiter-Glo® (CTG) assay.

[4] = test system: SW837 cells; assay: SW837 subcutaneous xenograft, tumor growth; assay type: in vivo, Mice; conditions: Compound (A) 60 mg/kg p.o. qd x18, sotorasib 30 mg/kg p.o.
Protocol: Mice were inoculated with SW837 cells subcutaneously on the right flank with the single cell suspension of 95% viable tumor cells (1×10^7) in 100 μL L-15 Matrigel mixture (1:1 ratio) without serum for the tumor development. The treatment was started when the mean tumor size reached approximately 200 mm^3 (with individual tumor range between 180-220 mm^3). Animals were randomly distributed into treatment groups of 8 animals each and dosed with vehicle (top line indicated with circles) and indicated compounds at indicated dosage and frequency shown in FIG. 6 and Table 3. In FIG. 6, single agent activity was shown with Compound (A) and sotorasib at the indicated doses. In addition, the bottom line is Compound (A) 60 mg/kg p.o. qd×18+sotorasib 30 mg/kg p.o. pd×18. […] Tumor volumes were evaluated twice per week to calculate tumor volume over time, and mice were weighed twice per week as a surrogate for signs of toxicity. Tumor growth inhibition (TGI) was calculated using the following equation TGI=(1−(Td−T0)/(Cd−C0))×100%. Td and Cd are the mean tumor volumes of the treated and control animals, and T0 and C0 are the mean tumor volumes of the treated and control animals at the start of the experiment. The tumor regression was defined as (1−(Td/T0))×100% tumor volume (TV) decrease (Td terminal TV divided by T0 initial TV). […]

[5] = test system: MiaPaca-2 cells; assay: MiaPaca-2 subcutaneous xenograft, tumor growth; assay type: in vivo, Mice; conditions: MiaPaca-2 xenograft, Compound (A) 80 mg/kg p.o. qd x21, sotorasib 10 mg/kg or MRTX849 10 mg/kg p.o.
Protocol: Tumor volumes were evaluated twice per week to calculate tumor volume over time, and mice were weighed twice per week as a surrogate for signs of toxicity. Tumor growth inhibition (TGI) was calculated using the following equation TGI=(1−(Td−T0)/(Cd−C0))×100%. Td and Cd are the mean tumor volumes of the treated and control animals, and T0 and C0 are the mean tumor volumes of the treated and control animals at the start of the experiment.

[6] = test system: LoVo tumor cells; assay: colorectal cancer LoVo xenograft model (KRAS mutant); assay type: in vivo, BALB/c nude mice
Protocol: as §1, with “LoVo” for “SW1116”, “(KRAS” for “(TP53 mutant; KRAS”, “BALB/c” for “NOD/SCID”, “5×10^6/100” for “1×10^7 (+High Concentration Matrigel)/200”, “207” for “229”, “4.” for “6.”
as §2

[7] = test system: H358 cells; assay: CellTiter-Glo (CTG) cell viability assay, H358 cells; assay type: cell-based; conditions: Homo sapiens, NCI-H358, 72 h, sotorasib 10 nM, Compound (A) 300 nM, single agent or combination of both
Protocol: as §3

[8] = test system: MiaPaca-2 cells; assay: CellTiter-Glo (CTG) cell viability assay, MiaPaca-2 cells; assay type: cell-based; conditions: Homo sapiens, MIA PaCa-2, 72 h, sotorasib 350 nM, Compound (A) 1000 nM, single agent or combination of both
Protocol: as §3

[9] = test system: H23 cells; assay: CellTiter-Glo (CTG) cell viability assay, H23 cells; assay type: cell-based; conditions: Homo sapiens, NCI-H23, 72 h, sotorasib 40 nM, Compound (A) 120 nM, single agent or combination of both
Protocol: as §3

SMILES: C=CCn1c(=O)c2cnc(Nc3ccc(N4CCN(C)CC4)cc3)nc2n1-c1ccc2c(n1)[C@@](O)(CC)CC2 [Compound (A)]
- TGI % (DAY 21) [1]: 57%
- TGI (%) ([2]; 40 mg/kg/day p.o. qd x 28): 49.0%
- TGI (%) ([2]; 60 mg/kg/day p.o. qd x 28): 75.1%
- TGI (%) ([2]; 80 mg/kg/day p.o. qd x 28): 98.5%
- tolerability ([2]; 40, 60, 80 mg/kg/day): generally well tolerated for the majority of study animals
- inhibition at 1 µM [3]: 28.8%
- TGI % (DAY 18) [4]: 72%
- TGI % (DAY 21) [5]: 50%
- TGI (%) ([6]; 40 mg/kg/day p.o. qd x 28): 21.4%
- TGI (%) ([6]; 60 mg/kg/day p.o. qd x 28): 32.1%
- TGI (%) ([6]; 80 mg/kg/day p.o. qd x 28): 70.3%
- mean body weights ([6]; 40, 60, 80 mg/kg/day): no significant impact of treatments on mean body weights
- clinical observations ([6]; any dose group (40, 60, 80 mg/kg/day)): no adverse clinical observations
- inhibition at 0.3 µM [7]: 31.5%
- inhibition at 1 µM [8]: 47%
- inhibition at 0.12 µM [9]: 16.5%

SMILES: C=CC(=O)N1CCN(c2nc(=O)n(-c3c(C)ccnc3C(C)C)c3nc(-c4c(O)cccc4F)c(F)cc23)[C@@H](C)C1 [sotorasib, reference compound]
- TGI % (DAY 21) [1]: 73%
- inhibition at 0.012 µM [3]: 20.7%
- TGI % (DAY 18) [4]: 80%
- TGI % (DAY 21) [5]: 81%
- inhibition at 0.01 µM [7]: 24%
- inhibition at 0.35 µM [8]: 39%
- inhibition at 0.04 µM [9]: 27.8%
